# Data reported in ChEMBL document CHEMBL4041467, “Synthesis of novel 15-membered 8a-azahomoerythromycin A acylides: Consequences of structural modification at the C-3 and C-6 position on antibacterial activity” (Eur J Med Chem, 2017).
# Key:
# Format in all cases: functional
# Streptococcus pneumoniae [1] = assay: Antibacterial activity against erythromycin susceptible Streptococcus pneumoniae by agar microdilution method
# Streptococcus pyogenes [2] = assay: Antibacterial activity against erythromycin susceptible Streptococcus pyogenes by agar microdilution method
# Staphylococcus aureus [3] = assay: Antibacterial activity against erythromycin susceptible Staphylococcus aureus by agar microdilution method
# Haemophilus influenzae = assay: Antibacterial activity against Haemophilus influenzae by agar microdilution method
# Streptococcus pyogenes [4] = assay: Antibacterial activity against constitutively macrolide/lincosamide/streptogramin B-resistant Streptococcus pyogenes by agar microdilution method
# Streptococcus pneumoniae [5] = assay: Antibacterial activity against constitutively macrolide/lincosamide/streptogramin B-resistant Streptococcus pneumoniae by agar microdilution method
# Staphylococcus aureus [6] = assay: Antibacterial activity against inducibly macrolide/lincosamide/streptogramin B-resistant Staphylococcus aureus by agar microdilution method
# Staphylococcus aureus [7] = assay: Antibacterial activity against constitutively macrolide/lincosamide/streptogramin B-resistant Staphylococcus aureus by agar microdilution method
# Streptococcus pneumoniae [8] = assay: Antibacterial activity against Mef-mediated macrolide efflux resistant Streptococcus pneumoniae by agar microdilution method
# Streptococcus pyogenes [9] = assay: Antibacterial activity against Mef-mediated macrolide efflux resistant Streptococcus pyogenes by agar microdilution method
Structure (SMILES),MIC (Streptococcus pneumoniae [1]),MIC (Streptococcus pyogenes [2]),MIC (Staphylococcus aureus [3]),MIC (Haemophilus influenzae),MIC (Streptococcus pyogenes [4]),MIC (Streptococcus pneumoniae [5]),MIC (Staphylococcus aureus [6]),MIC (Staphylococcus aureus [7]),MIC (Streptococcus pneumoniae [8]),MIC (Streptococcus pyogenes [9])
NCCNc1cc2c(cc1F)c(=O)c(C(=O)O)cn2C1CC1,> 64 µg/mL,> 64 µg/mL,> 64 µg/mL,> 64 µg/mL,,,,,,
C=CCO[C@]1(C)C[C@@H](C)NC(=O)[C@H](C)[C@@H](O)[C@](C)(O)[C@@H](CC)OC(=O)[C@H](C)[C@@H](OC(=O)CCNC(C)Cc2ccc([N+](=O)[O-])cc2)[C@H](C)[C@H]1O[C@@H]1O[C@H](C)C[C@H](N(C)C)[C@H]1O (some centres not stated),≤ 0.125 µg/mL,≤ 0.125 µg/mL,1 µg/mL,8 µg/mL,> 64 µg/mL,> 64 µg/mL,1 µg/mL,> 64 µg/mL,0.5 µg/mL,1 µg/mL
C=CCO[C@]1(C)C[C@@H](C)NC(=O)[C@H](C)[C@@H](O)[C@](C)(O)[C@@H](CC)OC(=O)[C@H](C)[C@@H](OC(=O)CCNCCCCc2ccccc2)[C@H](C)[C@H]1O[C@@H]1O[C@H](C)C[C@H](N(C)C)[C@H]1O,0.5 µg/mL,2 µg/mL,2 µg/mL,16 µg/mL,> 64 µg/mL,> 64 µg/mL,8 µg/mL,> 64 µg/mL,4 µg/mL,2 µg/mL
O=C(O)c1cn(C2CC2)c2ccc(N3CCNCC3)cc2c1=O,> 64 µg/mL,> 64 µg/mL,> 64 µg/mL,> 64 µg/mL,,,,,,
C=CCO[C@]1(C)C[C@@H](C)NC(=O)[C@H](C)[C@@H](O)[C@](C)(O)[C@@H](CC)OC(=O)[C@H](C)[C@@H](OC(=O)CCNC(C)C(=O)Nc2ccccc2)[C@H](C)[C@H]1O[C@@H]1O[C@H](C)C[C@H](N(C)C)[C@H]1O (some centres not stated),0.25 µg/mL,0.5 µg/mL,2 µg/mL,16 µg/mL,> 64 µg/mL,> 64 µg/mL,4 µg/mL,> 64 µg/mL,1 µg/mL,2 µg/mL
C=CCO[C@]1(C)C[C@@H](C)NC(=O)[C@H](C)[C@@H](O)[C@](C)(O)[C@@H](CC)OC(=O)[C@H](C)[C@@H](OC(=O)CCN(C)CCc2ccccc2)[C@H](C)[C@H]1O[C@@H]1O[C@H](C)C[C@H](N(C)C)[C@H]1O,0.25 µg/mL,0.5 µg/mL,4 µg/mL,16 µg/mL,> 64 µg/mL,> 64 µg/mL,4 µg/mL,> 64 µg/mL,2 µg/mL,8 µg/mL
C=CCO[C@]1(C)C[C@@H](C)NC(=O)[C@H](C)[C@@H](O)[C@](C)(O)[C@@H](CC)OC(=O)[C@H](C)[C@@H](OC(=O)CCN(C)CCc2ccc([N+](=O)[O-])cc2)[C@H](C)[C@H]1O[C@@H]1O[C@H](C)C[C@H](N(C)C)[C@H]1O,≤ 0.125 µg/mL,≤ 0.125 µg/mL,0.5 µg/mL,8 µg/mL,> 64 µg/mL,> 64 µg/mL,0.5 µg/mL,> 64 µg/mL,,
C=CCO[C@]1(C)C[C@@H](C)NC(=O)[C@H](C)[C@@H](OC(=O)C=C)[C@](C)(O)[C@@H](CC)OC(=O)[C@H](C)[C@@H](OC(=O)C=C)[C@H](C)[C@H]1O[C@@H]1O[C@H](C)C[C@H](N(C)C)[C@H]1O,32 µg/mL,32 µg/mL,32 µg/mL,> 64 µg/mL,> 64 µg/mL,> 64 µg/mL,> 64 µg/mL,> 64 µg/mL,> 64 µg/mL,> 64 µg/mL
C=CCO[C@]1(C)C[C@@H](C)NC(=O)[C@H](C)[C@@H](O)[C@](C)(O)[C@@H](CC)OC(=O)[C@H](C)[C@@H](OC(=O)CCN2CCN(c3ccc(F)cc3)CC2)[C@H](C)[C@H]1O[C@@H]1O[C@H](C)C[C@H](N(C)C)[C@H]1O,0.25 µg/mL,1 µg/mL,2 µg/mL,16 µg/mL,> 64 µg/mL,> 64 µg/mL,4 µg/mL,> 64 µg/mL,2 µg/mL,2 µg/mL
C=CCO[C@]1(C)C[C@@H](C)NC(=O)[C@H](C)[C@@H](O)[C@](C)(O)[C@@H](CC)OC(=O)[C@H](C)[C@@H](OC(=O)CCNC(C)Cc2ccccc2)[C@H](C)[C@H]1O[C@@H]1O[C@H](C)C[C@H](N(C)C)[C@H]1O (some centres not stated),1 µg/mL,1 µg/mL,4 µg/mL,8 µg/mL,> 64 µg/mL,> 64 µg/mL,4 µg/mL,> 64 µg/mL,2 µg/mL,2 µg/mL
C=CCO[C@]1(C)C[C@@H](C)NC(=O)[C@H](C)[C@@H](O)[C@](C)(O)[C@@H](CC)OC(=O)[C@H](C)[C@@H](OC(=O)CCNC(C)Cc2ccc(OC)cc2)[C@H](C)[C@H]1O[C@@H]1O[C@H](C)C[C@H](N(C)C)[C@H]1O (some centres not stated),0.5 µg/mL,0.25 µg/mL,2 µg/mL,16 µg/mL,> 64 µg/mL,> 64 µg/mL,2 µg/mL,> 64 µg/mL,2 µg/mL,4 µg/mL
C=CCO[C@]1(C)C[C@@H](C)NC(=O)[C@H](C)[C@@H](O)[C@](C)(O)[C@@H](CC)OC(=O)[C@H](C)[C@@H](OC(=O)CCNCCCc2ccccc2)[C@H](C)[C@H]1O[C@@H]1O[C@H](C)C[C@H](N(C)C)[C@H]1O,1 µg/mL,2 µg/mL,2 µg/mL,16 µg/mL,> 64 µg/mL,> 64 µg/mL,4 µg/mL,> 64 µg/mL,4 µg/mL,8 µg/mL
C=CCO[C@]1(C)C[C@@H](C)NC(=O)[C@H](C)[C@@H](O)[C@](C)(O)[C@@H](CC)OC(=O)[C@H](C)[C@@H](OC(=O)CCNC(C)C(=O)Nc2ccc([N+](=O)[O-])cc2)[C@H](C)[C@H]1O[C@@H]1O[C@H](C)C[C@H](N(C)C)[C@H]1O (some centres not stated),≤ 0.125 µg/mL,≤ 0.125 µg/mL,1 µg/mL,8 µg/mL,> 64 µg/mL,> 64 µg/mL,1 µg/mL,> 64 µg/mL,0.25 µg/mL,0.5 µg/mL
NCCNc1cc2c(=O)c(C(=O)O)cn(C3CC3)c2cc1Cl,> 64 µg/mL,> 64 µg/mL,> 64 µg/mL,> 64 µg/mL,,,,,,
C=CCO[C@]1(C)C[C@@H](C)NC(=O)[C@H](C)[C@@H](O)[C@](C)(O)[C@@H](CC)OC(=O)[C@H](C)[C@@H](OC(=O)C=C)[C@H](C)[C@H]1O[C@@H]1O[C@H](C)C[C@H](N(C)C)[C@H]1O,16 µg/mL,16 µg/mL,32 µg/mL,> 64 µg/mL,> 64 µg/mL,> 64 µg/mL,> 64 µg/mL,> 64 µg/mL,> 64 µg/mL,> 64 µg/mL
CC[C@H]1OC(=O)[C@H](C)C(=O)[C@H](C)[C@@H](O[C@@H]2O[C@H](C)C[C@H](N(C)C)[C@H]2O)[C@](C)(OCC=Cc2cnc3ccccc3c2)C[C@@H](C)C(=O)[C@H](C)[C@H]2NC(=O)O[C@@]21C [CETHROMYCIN],≤ 0.06 µg/mL,≤ 0.06 µg/mL,≤ 0.125 µg/mL,2 µg/mL,1 µg/mL,≤ 0.125 µg/mL,0.25 µg/mL,> 64 µg/mL,,≤ 0.125 µg/mL
O=C(O)c1cn(C2CC2)c2cc(N3CCNCC3)c(F)cc2c1=O [CIPROFLOXACIN],≤ 0.125 µg/mL,2 µg/mL,≤ 0.125 µg/mL,≤ 0.125 µg/mL,0.5 µg/mL,0.25 µg/mL,,,0.25 µg/mL,≤ 0.125 µg/mL
